These results are taken from PMC9516332 (Frontiers in Oncology, 2022).

Structures are written as SMILES. Like-named read-outs stand apart in the source and are kept apart here.

Assay [1] concerns the target T1, panel of 255 wild-type kinases (Homo sapiens, UniProt P41743).
T1 sequence (P41743 1-596): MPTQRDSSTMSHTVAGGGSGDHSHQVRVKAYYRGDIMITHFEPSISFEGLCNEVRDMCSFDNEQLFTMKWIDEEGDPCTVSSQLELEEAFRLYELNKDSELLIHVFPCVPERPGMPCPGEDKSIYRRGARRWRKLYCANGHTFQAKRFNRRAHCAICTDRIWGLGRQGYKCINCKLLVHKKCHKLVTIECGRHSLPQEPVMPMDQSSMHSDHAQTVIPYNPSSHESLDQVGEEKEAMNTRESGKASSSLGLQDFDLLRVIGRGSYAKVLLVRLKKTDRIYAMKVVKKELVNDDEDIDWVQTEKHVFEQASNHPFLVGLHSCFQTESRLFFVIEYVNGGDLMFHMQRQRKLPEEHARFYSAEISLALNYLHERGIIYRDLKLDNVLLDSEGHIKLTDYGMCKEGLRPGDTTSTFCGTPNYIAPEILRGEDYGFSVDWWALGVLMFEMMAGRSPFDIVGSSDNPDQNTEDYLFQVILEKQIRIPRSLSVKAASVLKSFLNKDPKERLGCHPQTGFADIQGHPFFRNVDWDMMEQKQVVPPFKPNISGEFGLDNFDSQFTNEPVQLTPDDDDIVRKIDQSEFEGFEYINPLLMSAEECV
To be noted: cited from earlier work.

Assay [2] has as its target panel of 255 wild-type kinases (Homo sapiens, UniProt P00533). Briefly: Kinase panel profiling at 1 µmol/L (MSA or IMAP), percentage inhibition. In kind it is biochemical. To be noted: kinase EGFR; 1 µmol/L single concentration; read-out: %-inhibition at 1 µmol/L, EGFR.
Assay [3] addresses panel of 255 wild-type kinases (Homo sapiens, UniProt P17252). The description is as above. In kind it is biochemical. The following applies: kinase PKCα; 1 µmol/L single concentration; read-out: %-inhibition at 1 µmol/L, PKCα.
In assay [4] the target is panel of 255 wild-type kinases (Homo sapiens, UniProt P43405). The description is as above. In kind it is biochemical. To be noted: kinase SYK; 1 µmol/L single concentration; read-out: %-inhibition at 1 µmol/L, SYK.
Assay [5] concerns the target panel of 255 wild-type kinases (Homo sapiens, UniProt Q16620). The assay is described as above. To be noted: kinase TRKB; 1 µmol/L single concentration; read-out: %-inhibition at 1 µmol/L, TRKB. Format: biochemical.
For assay [6], the target named is panel of 255 wild-type kinases (Homo sapiens, UniProt Q8N4C8). The description is as above. Format: biochemical. The following applies: MINK; 1 µmol/L single concentration; read-out: %-inhibition, MINK.
Assay [7] concerns the target T2, panel of 255 wild-type kinases (Homo sapiens, UniProt Q8TDC3).
T2 sequence (Q8TDC3 1-778): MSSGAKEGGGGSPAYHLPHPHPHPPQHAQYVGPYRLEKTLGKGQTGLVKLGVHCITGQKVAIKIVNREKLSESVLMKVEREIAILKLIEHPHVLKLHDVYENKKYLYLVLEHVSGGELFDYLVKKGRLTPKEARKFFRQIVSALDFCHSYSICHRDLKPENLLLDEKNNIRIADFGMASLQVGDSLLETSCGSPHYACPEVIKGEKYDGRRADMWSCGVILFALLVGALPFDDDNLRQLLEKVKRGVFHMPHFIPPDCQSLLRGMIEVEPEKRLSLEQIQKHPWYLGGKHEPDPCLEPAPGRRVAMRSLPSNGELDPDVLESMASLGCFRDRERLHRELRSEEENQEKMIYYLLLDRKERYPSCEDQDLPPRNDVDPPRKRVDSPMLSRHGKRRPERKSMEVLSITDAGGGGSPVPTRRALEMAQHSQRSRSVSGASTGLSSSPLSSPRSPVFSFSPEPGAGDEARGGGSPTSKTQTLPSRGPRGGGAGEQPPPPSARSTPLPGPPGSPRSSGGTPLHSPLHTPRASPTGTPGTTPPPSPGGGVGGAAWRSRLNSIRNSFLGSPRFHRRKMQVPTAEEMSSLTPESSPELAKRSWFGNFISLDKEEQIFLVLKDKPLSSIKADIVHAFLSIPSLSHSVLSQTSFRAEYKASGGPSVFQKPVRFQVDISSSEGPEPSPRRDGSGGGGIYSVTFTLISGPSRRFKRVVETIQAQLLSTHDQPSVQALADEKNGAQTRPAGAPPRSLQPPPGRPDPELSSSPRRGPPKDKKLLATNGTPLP
The description is as above. Format: biochemical. To be noted: BRSK1 kinase assay; 1 µmol/L single concentration; read-out: %-inhibition BRSK1.

For assay [8], the target named is T3, panel of 255 wild-type kinases (Homo sapiens, UniProt Q96PF2).
T3 sequence (Q96PF2 1-358): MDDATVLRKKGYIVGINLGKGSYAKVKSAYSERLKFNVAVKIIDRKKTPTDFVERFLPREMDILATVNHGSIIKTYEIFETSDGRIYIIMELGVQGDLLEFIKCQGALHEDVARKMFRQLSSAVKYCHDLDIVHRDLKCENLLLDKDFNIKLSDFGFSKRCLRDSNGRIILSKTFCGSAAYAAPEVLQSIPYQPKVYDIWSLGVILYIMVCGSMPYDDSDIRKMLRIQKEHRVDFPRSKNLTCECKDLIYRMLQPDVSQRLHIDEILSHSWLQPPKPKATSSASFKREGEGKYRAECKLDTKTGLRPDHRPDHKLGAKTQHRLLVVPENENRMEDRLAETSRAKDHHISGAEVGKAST
Described as above. In kind it is biochemical. To be noted: kinase TSSK2; 1 µmol/L single concentration; read-out: %-inhibition at 1 µmol/L, TSSK2.

The target in assay [9] is panel of 255 wild-type kinases (Homo sapiens, UniProt Q9NQU5). The description is as above. The following applies: PAK6; 1 µmol/L single concentration; read-out: %-inhibition, PAK6. In kind it is biochemical.
Where [10] appears, read: kinase PKCι, 1 µmol/L single concentration, ref DOI: 10.1158/1535-7163.MCT-18-0877.
[11] abbreviates: kinase PKCι, 1 µmol/L single concentration, ref DOI: 10.1371/journal.pone.0092146.

Take `C=CC(=O)N1CCC[C@@H](n2nc(-c3ccc(Oc4ccccc4)cc3)c3c(N)ncnc32)C1` [ibrutinib]: the “%-inhibition at 1 µmol/L, PKCι” value in assay [1] (setting [10]) is given as 2.23%.

With `CC(=O)Nc1cccc(-n2c(=O)n(C3CC3)c(=O)c3c(Nc4ccc(I)cc4F)n(C)c(=O)c(C)c32)c1` [trametinib], in assay [1] (setting [11]), the “%-inhibition at 1 µmol/L, PKCι” value is given as 9%.

Take `Cc1cc(Nc2ncc(Cl)c(Nc3ccccc3S(=O)(=O)C(C)C)n2)c(OC(C)C)cc1C1CCNCC1` [ceritinib]: the “%-inhibition at 1 µmol/L, PKCι” value in assay [1] (setting [10]) is 25%.

As to `C[C@@H](Oc1cc(-c2cnn(C3CCNCC3)c2)cnc1N)c1c(Cl)ccc(F)c1Cl` [crizotinib], the “%-inhibition at 1 µmol/L, PKCι” value in assay [1] (setting [11]) is recorded as -5%.

Regarding `C=CC(=O)Nc1cc(Nc2nccc(-c3cn(C)c4ccccc34)n2)c(OC)cc1N(C)CCN(C)C` [osimertinib], in assay [1] (setting [10]), the “%-inhibition at 1 µmol/L, PKCι” value is listed as 20%.

On to `CCCS(=O)(=O)Nc1ccc(F)c(C(=O)c2c[nH]c3ncc(-c4ccc(Cl)cc4)cc23)c1F` [vemurafenib], for which, in [1] (setting [11]), the “%-inhibition at 1 µmol/L, PKCι” value is -16%.

As for `O=C(c1ccc(F)c(F)c1Nc1ccc(I)cc1F)N1CC(O)([C@@H]2CCCCN2)C1` [cobimetinib], the “%-inhibition at 1 µmol/L, PKCι” value in assay [1] (setting [10]) is listed as 2.45%.

As to `CC(C)(C)c1nc(-c2cccc(NS(=O)(=O)c3c(F)cccc3F)c2F)c(-c2ccnc(N)n2)s1` [dabrafenib], in assay [1] (setting [11]), the “%-inhibition at 1 µmol/L, PKCι” value was 14%.

Turning to `CO[C@@H]1[C@H](N(C)C(=O)c2ccccc2)C[C@H]2O[C@]1(C)n1c3ccccc3c3c4c(c5c6ccccc6n2c5c31)C(=O)NC4` [midostaurin], the “%-inhibition at 1 µmol/L, PKCι” value in assay [1] (setting [10]) was 3%.

On to `CC#CC(=O)N1CCC[C@H]1c1nc(-c2ccc(C(=O)Nc3ccccn3)cc2)c2c(N)nccn12` [acalabrutinib], for which the “%-inhibition at 1 µmol/L, PKCι” value in [1] (setting [10]) is reported as -8%.

As to `CCc1cc2c(cc1N1CCC(N3CCOCC3)CC1)C(C)(C)c1[nH]c3cc(C#N)ccc3c1C2=O` [alectinib], the “%-inhibition at 1 µmol/L, PKCι” value in assay [1] (setting [10]) is reported as 11%.

As to `CO[C@]1(C(=O)N[C@@H](C)c2ccc(-n3cc(F)cn3)nc2)CC[C@H](c2nc(C)cc(Nc3cc(C)[nH]n3)n2)CC1` [pralsetinib], the inhibition at 1 µM in assay [2] was 48%; in assay [3] it was 3%; in assay [4] it was 85%; in assay [5] it was 94%; in assay [6] it was -3.43%; in [7], 12%. Further, the values for the inhibition at 1 µM in assay [8] and in assay [9] were 8% and 42%, respectively.

Regarding `CCn1c(=O)c(-c2cc(NC(=O)Nc3ccccc3)c(F)cc2Br)cc2cnc(NC)cc21` [ripretinib], the inhibition at 1 µM is 10% in assay [2]; -1.85% in assay [3]; -8% in assay [4]; 64% in assay [5]; 3.55% in assay [6]; 1.77% in [7]. For the same compound, the inhibition at 1 µM in assay [8] was -3.73%; in [9], 1.15%.

For the compound `Cc1nc(NC(=O)N2CCC[C@H]2C(N)=O)sc1-c1ccnc(C(C)(C)C(F)(F)F)c1` [alpelisib], the inhibition at 1 µM in assay [2] was 2%; in assay [3], 1.21%; in [4], -23%; in [5] it was -2.43%; in [6] it was -2%; in [7], 12%. The inhibition at 1 µM in assay [8] was -6%; in assay [9], 10%.

For `COc1cc(N2CCC(N3CCN(C)CC3)CC2)ccc1Nc1ncc(Cl)c(Nc2ccccc2P(C)(C)=O)n1` [brigatinib], in assay [1], the “%-inhibition at 1 µmol/L, PKCι” value is recorded as -38%.

As for `O=C(Nc1cnn2ccc(N3CCC[C@@H]3c3cc(F)ccc3F)nc12)N1CC[C@H](O)C1` [larotrectinib], the inhibition at 1 µM in assay [2] is 5%; in [3], -3%; in assay [4], -8%; in assay [5], 102%; in [6], -2.24%; in [7], -0.915%. Moreover, the inhibition at 1 µM in [8] was -0.476%; in assay [9], 13%.
